# In ChEMBL document CHEMBL1649380, “Prediction of drug intestinal absorption by new linear and non-linear QSPR” (Eur J Med Chem, 2011):
# Assay: Drug absorption in human assessed as human intestinal absorption rate
# Type: ADME, tissue-based, Intestine
row,SMILES,log10(%HIA +10)
1,C[C@H]1[C@H](NC(=O)/C(=N\OC(C)(C)C(=O)O)c2csc(N)n2)C(=O)N1S(=O)(=O)O [AZTREONAM],1.041
2,CCOC(=O)[C@H](CCc1ccccc1)N[C@H]1CCc2ccccc2N(CC(=O)O)C1=O [BENAZEPRIL],1.672
3,NC(CO)C(=O)NNCc1ccc(O)c(O)c1O (configuration not stated) [BENSERAZIDE],1.903
4,CCc1oc2ccccc2c1C(=O)c1cc(Br)c(O)c(Br)c1 [BENZBROMARONE],1.919
5,CN(C)CCCOc1nn(Cc2ccccc2)c2ccccc12 [BENZYDAMINE],1.987
6,CC(C)NCC(O)COc1ccc(CCOCC2CC2)cc1 (configuration not stated) [BETAXOLOL],2
7,O=c1[nH]c(=O)n([C@H]2C[C@H](O)[C@@H](CO)O2)cc1/C=C/Br [BRIVUDINE],1.58
8,CN(Cc1cc(Br)cc(Br)c1N)C1CCCCC1 [BROMHEXINE],1.903
9,CC(C)C[C@H]1C(=O)N2CCC[C@H]2[C@]2(O)O[C@](NC(=O)[C@@H]3C=C4c5cccc6[nH]c(Br)c(c56)C[C@H]4N(C)C3)(C(C)C)C(=O)N12 [BROMOCRIPTINE],1.58
10,CC(NC(C)(C)C)C(=O)c1cccc(Cl)c1 (configuration not stated) [BUPROPION],1.987
11,Cn1c(=O)c2c(ncn2C)n(C)c1=O [CAFFEINE],2.041
12,C[C@H](CS)C(=O)N1CCC[C@H]1C(=O)O [CAPTOPRIL],1.892
13,N[C@@H](C(=O)N[C@@H]1C(=O)N2C(C(=O)O)=C(CSc3c[nH]nn3)CS[C@H]12)c1ccc(O)cc1 [CEFATRIZINE],1.934
14,CO/N=C(\C(=O)N[C@@H]1C(=O)N2C(C(=O)O)=C(CSc3nc(C)c(CC(=O)O)s3)CS[C@H]12)c1csc(N)n1 [CEFODIZIME],1
15,COCC1=C(C(=O)OC(C)OC(=O)OC(C)C)N2C(=O)[C@@H](NC(=O)/C(=N\OC)c3csc(N)n3)[C@H]2SC1 (some centres not stated) [CEFPODOXIME PROXETIL],1.778
16,CO/N=C(\C(=O)N[C@@H]1C(=O)N2C(C(=O)O)=C(CSc3nc(=O)c(=O)[nH]n3C)CS[C@H]12)c1csc(N)n1 [CEFTRIAXONE],1.041
17,CO/N=C(\C(=O)N[C@@H]1C(=O)N2C(C(=O)O)=C(COC(N)=O)CS[C@H]12)c1ccco1 [CEFUROXIME],1.176
18,O=C(N[C@H](CO)[C@H](O)c1ccc([N+](=O)[O-])cc1)C(Cl)Cl [CHLORAMPHENICOL],2
19,NS(=O)(=O)c1cc2c(cc1Cl)N=CNS2(=O)=O [CHLOROTHIAZIDE],1.528
20,Nc1ccn(C[C@@H](CO)OCP(=O)(O)O)c(=O)n1.O.O [CIDOFOVIR],1.114
21,CCOC(=O)C(C)(C)Oc1ccc(Cl)cc1 [CLOFIBRATE],1.987
22,COc1ccc2c3c1O[C@H]1[C@@H](O)C=C[C@H]4[C@@H](C2)N(C)CC[C@@]341 [CODEINE],2.021
23,O=C(O)c1cc(=O)c2c(OCC(O)COc3cccc4oc(C(=O)O)cc(=O)c34)cccc2o1 [CROMOLYN],1.021
24,N[C@@H]1CON=C1O [CYCLOSERINE],1.919

row,SMILES,log10(%HIA +10)
1,CO[C@H]1C[C@H](O[C@H]2CC[C@]3(C=O)[C@H]4CC[C@]5(C)[C@@H](C6=CC(=O)OC6)CC[C@]5(O)[C@@H]4CC[C@]3(O)C2)O[C@H](C)[C@H]1O [CYMARIN],1.756
2,O=C(O)Cc1ccccc1Nc1c(Cl)cccc1Cl [DICLOFENAC],2.041
3,CN1C[C@H](C(=O)N[C@]2(C)O[C@@]3(O)[C@@H]4CCCN4C(=O)[C@H](Cc4ccccc4)N3C2=O)C[C@@H]2c3cccc4[nH]cc(c34)C[C@H]21 [DIHYDROERGOTAMINE],1.653
4,OCCN(CCO)c1nc(N2CCCCC2)c2nc(N(CCO)CCO)nc(N3CCCCC3)c2n1 [DIPYRIDAMOLE],1.833
5,COc1cccc2c1C(=O)c1c(O)c3c(c(O)c1C2=O)C[C@@](O)(C(=O)CO)C[C@@H]3O[C@H]1C[C@H](N)[C@H](O)[C@H](C)O1 [DOXORUBICIN],1.176
6,O=C(O)CN(CCN(CC(=O)O)CC(=O)O)CC(=O)O [EDETIC ACID],1.176
7,NCCCC(N)(C(=O)O)C(F)F (configuration not stated) [EFLORNITHINE],1.813
8,CCOC(=O)[C@H](CCc1ccccc1)N[C@@H](C)C(=O)N1CCC[C@H]1C(=O)O.O=C(O)/C=C\C(=O)O [ENALAPRIL MALEATE],1.881
9,CC[C@@H](CO)NCCN[C@@H](CC)CO [ETHAMBUTOL],1.954
10,CCc1cccc2c3c([nH]c12)C(CC)(CC(=O)O)OCC3 (configuration not stated) [ETODOLAC],1.903
11,CC(=O)OCC(CCn1cnc2cnc(N)nc21)COC(C)=O [FAMCICLOVIR],1.903
12,NC(N)=Nc1nc(CSCCC(N)=NS(N)(=O)=O)cs1 [FAMOTIDINE],1.681
13,NC(=O)OCC(COC(N)=O)c1ccccc1 [FELBAMATE],2
14,Cc1onc(-c2c(F)cccc2Cl)c1C(=O)N[C@@H]1C(=O)N2[C@@H]1SC(C)(C)[C@@H]2C(=O)O [FLOXACILLIN],1.699
15,OC(Cn1cncn1)(Cn1cncn1)c1ccc(F)cc1F [FLUCONAZOLE],2.027
16,N=c1nc2n(cc1F)[C@@H]1O[C@H](CO)[C@@H](O)[C@@H]1O2 [FLUROCITABINE],1.623
17,O=C(O)P(=O)(O)O [FOSCARNET],1.431
18,C[C@@H]1O[C@@H]1P(=O)(O)O [FOSFOMYCIN],1.613
19,O=CN(O)CCCP(=O)(O)O [FOSMIDOMYCIN],1.602
20,NC[C@@H]1O[C@H](O[C@H]2[C@@H](O)[C@H](O[C@@H]3[C@@H](O)[C@H](N)C[C@H](N)[C@H]3O[C@H]3O[C@H](CN)[C@@H](O)[C@H](O)[C@H]3N)O[C@@H]2CO)[C@H](N)[C@@H](O)[C@@H]1O [FRAMYCETIN],1.041
21,NS(=O)(=O)c1cc(C(=O)O)c(NCc2ccco2)cc1Cl [FUROSEMIDE],1.851
22,Nc1nc(O)c2ncn(COC(CO)CO)c2n1 [GANCICLOVIR],1.134
23,N=C(N)N/N=C/c1c(Cl)cccc1Cl [GUANABENZ],1.954
24,N=C(N)NCC1COc2ccccc2O1 (configuration not stated) [GUANOXAN],1.778

row,SMILES,log10(%HIA +10)
1,NS(=O)(=O)c1cc2c(cc1Cl)NCNS2(=O)=O [HYDROCHLOROTHIAZIDE],1.875
2,C[C@]12CCC(=O)C=C1CC[C@@H]1[C@@H]2[C@@H](O)C[C@@]2(C)[C@H]1CC[C@]2(O)C(=O)CO [HYDROCORTISONE],2.004
3,CC(C)Cc1ccc(C(C)C(=O)O)cc1 (configuration not stated) [IBUPROFEN],2.041
4,C[C@@H](O)[C@H]1C(=O)N2C(C(=O)O)=C(SCCN=CN)C[C@H]12 [IMIPENEM ANHYDROUS],1.176
5,COc1ccc2c(c1)c(CC(=O)O)c(C)n2C(=O)c1ccc(Cl)cc1 [INDOMETHACIN],2.041
6,CC(=O)N(CC(O)CO)c1c(I)c(C(=O)NCC(O)CO)c(I)c(C(=O)NCC(O)CO)c1I (configuration not stated) [IOHEXOL],1.176
7,CNC(=O)c1c(I)c(NC(C)=O)c(I)c(C(=O)O)c1I [IOTHALAMIC ACID],1.076
8,O=C(COCCOCCOCC(=O)Nc1c(I)cc(I)c(C(=O)O)c1I)Nc1c(I)cc(I)c(C(=O)O)c1I [IOTROXIC ACID],1.176
9,Cc1cc(C(=O)NNCc2ccccc2)no1 [ISOCARBOXAZID],1.903
10,NC[C@H]1O[C@H](O[C@H]2[C@H](O)[C@@H](O[C@H]3O[C@H](CO)[C@@H](O)[C@H](N)[C@H]3O)[C@H](N)C[C@@H]2N)[C@H](O)[C@@H](O)[C@@H]1O [KANAMYCIN],1.041
11,CC(C(=O)O)c1cccc(C(=O)c2ccccc2)c1 (configuration not stated) [KETOPROFEN],2.009
12,O=C(c1ccccc1)c1ccc2n1CCC2C(=O)O (configuration not stated) [KETOROLAC],2
13,CC(CCc1ccccc1)NCC(O)c1ccc(O)c(C(N)=O)c1 (configuration not stated) [LABETALOL],2.021
14,OC[C@H]1O[C@@H](O[C@@H]2[C@@H](CO)O[C@](O)(CO)[C@H]2O)[C@H](O)[C@@H](O)[C@H]1O [LACTULOSE],1.025
15,Nc1ccn([C@@H]2CS[C@H](CO)O2)c(=O)n1 [LAMIVUDINE],1.987
16,Cc1c(OCC(F)(F)F)ccnc1C[S+]([O-])c1nc2ccccc2[nH]1 (configuration not stated) [LANSOPRAZOLE],1.978
17,CCC[C@@H]1C[C@@H](C(=O)N[C@@H]([C@H]2O[C@H](SC)[C@H](O)[C@@H](O)[C@H]2O)[C@@H](C)O)N(C)C1 [LINCOMYCIN],1.574
18,NCCCC[C@H](N[C@@H](CCc1ccccc1)C(=O)O)C(=O)N1CCC[C@H]1C(=O)O [LISINOPRIL ANHYDROUS],1.544
19,CC[C@H](C)C(=O)O[C@H]1C[C@@H](C)C=C2C=C[C@H](C)[C@H](CC[C@@H]3C[C@@H](O)CC(=O)O3)[C@H]21 [LOVASTATIN],1.608
20,OC[C@@H](O)[C@@H](O)[C@H](O)[C@H](O)CO [MANNITOL],1.415
21,C[C@@H](O)[C@H]1C(=O)N2C(C(=O)O)=C(S[C@@H]3CN[C@H](C(=O)N(C)C)C3)[C@H](C)[C@H]12 [MEROPENEM],1
22,CC(C)NCC(O)c1cc(O)cc(O)c1 (configuration not stated) [METAPROTERENOL],1.732
23,CN(C)C(=N)N=C(N)N [METFORMIN],1.799
24,C[C@](N)(Cc1ccc(O)c(O)c1)C(=O)O [METHYLDOPA],1.708
